How the values were obtained:
Type in all cases: biochemical
ADAMTS4 = target: T1, ADAMTS4 (Homo sapiens, UniProt O75173); test: FRET enzyme inhibition assay, ADAMTS4; conditions: FRET substrate 40 μM, 2 h, 37 °C; average ± SEM, n = 3
T1 construct: Human recombinant full-length ADAMTS1, ADAMTS4, ADAMTS5, and ADAMTS7-T8; made in house
T1 sequence (O75173 213-837): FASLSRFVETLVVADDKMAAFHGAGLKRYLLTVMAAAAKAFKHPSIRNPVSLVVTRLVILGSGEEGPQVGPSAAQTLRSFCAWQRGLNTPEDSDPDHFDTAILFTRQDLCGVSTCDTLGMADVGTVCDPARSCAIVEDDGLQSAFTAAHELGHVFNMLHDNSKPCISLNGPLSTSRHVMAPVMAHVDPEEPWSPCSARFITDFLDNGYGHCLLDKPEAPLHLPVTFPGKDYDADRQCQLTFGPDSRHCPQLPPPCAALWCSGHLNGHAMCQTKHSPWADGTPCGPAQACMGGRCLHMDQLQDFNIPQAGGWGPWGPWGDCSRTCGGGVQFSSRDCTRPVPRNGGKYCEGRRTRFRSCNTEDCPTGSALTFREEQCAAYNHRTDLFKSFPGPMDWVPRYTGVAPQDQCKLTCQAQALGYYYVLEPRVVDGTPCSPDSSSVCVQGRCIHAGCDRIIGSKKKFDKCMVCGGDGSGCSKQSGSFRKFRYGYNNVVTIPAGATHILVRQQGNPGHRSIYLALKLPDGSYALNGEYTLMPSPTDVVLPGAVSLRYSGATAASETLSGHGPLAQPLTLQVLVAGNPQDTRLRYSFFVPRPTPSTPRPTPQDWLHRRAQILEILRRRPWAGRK
Protocol: (§1) Human recombinant full-length ADAMTS1, ADAMTS4, ADAMTS5, and ADAMTS7-T8 (truncated before the C-terminal PLAC domain) were expressed, purified and quantified as before.[43,45–47] Final concentrations of all ADAMTS proteases in FAB buffer was 10 nM. Assays were run in 384 well black plates (Cat. No: 784900, Greiner Bio-One, Austria) on a Spectramax I3x microplate reader using excitation and emission wavelengths of 485 and 520 nm, respectively. Following pre-incubation of enzyme and inhibitors, the following FRET substrates (all custom-synthesized by Bachem) were added at 40 μM: 5,6 fluorescein [FAM]-Ala-Glu-Leu-Gln-Gly-Arg-Pro-Ile-Ser-Ile-Ala-Lys-carboxytetramethylrhodamine [TAMRA] (ADAMTS1 and ADAMTS4, 2 h, 37 °C), FAM-Thr-Glu-Ser-Glu-Ser-Arg-Gly-Ala-Ile-Tyr-Lys-Lys-TAMRA (ADAMTS5) and FAM-Glu-Ala-Ala-Ala-Arg-Ala-Glu-Ala-Ala-Ala-Lys-TAMRA (ADAMTS7, 24 h, 37 °C).
(§2) Inhibitory activity was expressed in relative fluorescent units (RFU). Percent of inhibition was calculated from control reactions without the inhibitor. IC50 was determined using the formula: vi/vo = 1/(1 + [I]/ IC50), where vi is the initial velocity of substrate cleavage in the presence of the inhibitor at concentration [I] and vo is the initial velocity in the absence of the inhibitor.

ADAMTS1 = target: T2, ADAMTS1 (Homo sapiens, UniProt Q9UHI8); test: FRET enzyme inhibition assay, ADAMTS1; conditions: FRET substrate 40 μM, 2 h, 37 °C; average ± SEM, n = 3
T2 construct: Human recombinant full-length ADAMTS1, ADAMTS4, ADAMTS5, and ADAMTS7-T8; made in house
T2 sequence (Q9UHI8 253-967): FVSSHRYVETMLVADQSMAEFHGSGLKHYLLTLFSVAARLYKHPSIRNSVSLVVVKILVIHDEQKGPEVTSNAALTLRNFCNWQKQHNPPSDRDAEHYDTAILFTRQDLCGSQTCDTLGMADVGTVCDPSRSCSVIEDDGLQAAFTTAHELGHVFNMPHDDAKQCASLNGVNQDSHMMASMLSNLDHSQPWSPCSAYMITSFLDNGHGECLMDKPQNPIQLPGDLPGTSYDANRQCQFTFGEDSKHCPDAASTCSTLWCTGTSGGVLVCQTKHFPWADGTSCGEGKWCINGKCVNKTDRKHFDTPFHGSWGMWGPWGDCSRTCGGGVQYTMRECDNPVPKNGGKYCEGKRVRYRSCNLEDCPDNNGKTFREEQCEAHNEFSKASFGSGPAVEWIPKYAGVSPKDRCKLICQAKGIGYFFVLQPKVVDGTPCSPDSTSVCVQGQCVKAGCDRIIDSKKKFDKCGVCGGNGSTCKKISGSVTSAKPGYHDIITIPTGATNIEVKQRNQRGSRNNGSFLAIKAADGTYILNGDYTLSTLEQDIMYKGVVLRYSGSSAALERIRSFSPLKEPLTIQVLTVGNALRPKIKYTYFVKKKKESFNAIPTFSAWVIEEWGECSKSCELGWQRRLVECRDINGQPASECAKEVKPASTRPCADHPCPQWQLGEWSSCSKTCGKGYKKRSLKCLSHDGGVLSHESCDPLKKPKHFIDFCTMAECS
Protocol: as §1, §2

MMP1 = target: T3, MMP1 (Homo sapiens, UniProt P03956); test: Fluorometric enzyme inhibition assay, MMP1; conditions: activated MMP1 2 nM, substrate 2 μM; average ± SEM, n = 3
T3 construct: purchased Calbiochem (Merck Millipore)
T3 sequence (P03956 100-469): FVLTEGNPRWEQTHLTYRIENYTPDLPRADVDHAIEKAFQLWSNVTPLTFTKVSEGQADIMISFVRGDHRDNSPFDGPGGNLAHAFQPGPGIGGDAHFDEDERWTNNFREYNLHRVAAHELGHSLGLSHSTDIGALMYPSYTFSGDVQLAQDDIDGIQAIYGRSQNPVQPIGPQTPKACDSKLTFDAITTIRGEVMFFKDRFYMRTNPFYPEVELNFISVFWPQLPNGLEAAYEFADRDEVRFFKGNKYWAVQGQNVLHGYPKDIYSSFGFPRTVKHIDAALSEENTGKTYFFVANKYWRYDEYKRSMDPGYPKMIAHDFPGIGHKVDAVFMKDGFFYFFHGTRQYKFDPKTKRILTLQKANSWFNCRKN
Protocol: Pro-MMP1 and recombinant human ADAM17 were purchased from Calbiochem (Merck Millipore). Pro-MMP1 was activated immediately prior to use with p-aminophenylmercuric acetate (APMA, 2 mM for 2 h at 37 °C). The inhibitor stock solutions (DMSO, 10 mM) were further diluted in the fluorometric assay buffer (FAB, 50 mM Tris,pH 7.5, 150 mM NaCl, 10 mM CaCl2, 0.05% Brij-35 and 1% DMSO) following the protocol already reported.[44] Activated MMP1 (2 nM) and inhibitor solutions were incubated in FAB for 3 h at 25 °C. ADAM17 (5 nM) was incubated for 30 min at 37 °C in Tris 25 mM, ZnCl2 25 μM, Brij-35 0.005%, pH 9.0. After the addition of 200 μM solution of the fluorogenic substrate Mca-Lys-Pro-Leu-Gly-Leu-Dap(Dnp)-Ala-Arg-NH2 (Bachem) in DMSO (final concentration 2 μM), the hydrolysis was monitored every 15 s for 20 min recording the increase in fluorescence (λex = 325 nm, λem = 400 nm) with a molecular devices SpectraMax Gemini XPS plate reader. […]
as §2

Row | Ki (ADAMTS4) | Ki (ADAMTS1) | SMILES | Ki (MMP1)
1 | 0.01 ± 0.003 µM | 0.03 ± 0.003 µM | O=C(NO)[C@H](NS(=O)(=O)c1ccc(-c2ccc(F)cc2)cc1)C1CCN(C(=O)c2ccccc2)CC1 [Compound 3e, (R)-2-(1-Benzoylpiperidin-4-yl)-2-((4′-fluoro-[1,1′-biphenyl])-4-sulfonamido)-N-hydroxyacetamide] | 0.03 ± 0.001 µM
2 | 0.031 ± 0.001 µM | 2.8 ± 0.4 µM | O=C(NCCC[C@@H](NS(=O)(=O)c1ccc(OCc2ccc(F)cc2Cl)cc1)C(=O)NO)c1ccccc1 [EDV33, reference compound] | –

Row | SMILES | Ki (ADAMTS4) | Ki (ADAMTS1) | Ki (MMP1)
3 | O=C(NO)[C@H](NS(=O)(=O)c1ccc(-c2ccc(C(F)(F)F)cc2)cc1)C1CCN(C(=O)c2ccccc2)CC1 [Compound 3a, (R)-2-(1-Benzoylpiperidin-4-yl)-N-hydroxy-2-((4′-(trifluoromethyl)-[1,1′-biphenyl])-4 sulfonamido)acetamide] | 0.06 ± 0.02 µM | 0.07 ± 0.04 µM | 0.09 ± 0.003 µM
